Test results from patent publication US4203990A, “Anti-diarrheal 2-substituted quinuclidines” (G. D. Searle & Co., priority 1979, dated 1980).

Columns and labels:
[1] = test system: gastrointestinal propulsive motility; assay: Mouse Cecal Test (charcoal in cecum, inhibition of gastrointestinal propulsive motility); format: in vivo, male Charles River mice; settings: oral/IG, test compound 30 min before charcoal, cecum examined 3.5 h after charcoal, logistic method of Berkson
Excerpt: The present compounds are potent anti-diarrheal agents as evidenced by their ability to inhibit gastrointestinal propulsive motility as set forth in the following tests:
The method used for this assay is a modification of the techniques previously described by Macht and Barba-Gose, J. Amer. Pharm. Ass., 20, 558 (1931), and Janssen and Jageneau, J. Pharm. Pharmacol., 9, 381 (1957). Details are as follows:
A group of six, male Charles River mice weighing 20-25 g. which have been previously fasted for 24 hours are pretreated with the test compounds administered orally as a solution in water or suspended in 0.5% methyl cellulose. A constant volume of 10 ml./kg. is employed. Thirty minutes following administration of the test compounds, the animals are given a single oral dose of charcoal which consists of 0.2 ml. per mouse of 10% charcoal suspended in 1.0% methyl cellulose. Three and a half hours after charcoal administration, the animals are sacrificed and the cecum examined for the absence or presence of charcoal on an all-or-none basis.
The median effective dose (ED50) is then calculated for each compound using the logistic method of Berkson (1953).

[2] = test system: castor oil-induced diarrhea; assay: Castor Oil-Induced Diarrhea in the Rat; format: in vivo, Charles River male rats; settings: po, intragastric, 1 h before castor oil (1.0 ml per rat), at 2 hours past castor oil, method of Berkson
Procedure: Adult Charles River male rats are fasted in community cages for 24 hours prior to the test, with free access to water. The test compound is then administered intragastrically (suspended on 0.5% methyl cellulose) one hour prior to the intragastric administration of a dose of 1.0 ml. castor oil per rat. The rats are then observed for the presence or absence of diarrhea at hourly intervals for up to 8 hours past the castor oil administration. Using the method of Berkson (1953), the median effective dose (ED50) values are calculated at each hourly interval for the test compound.
The median effective dose at 2 hours past the castor oil administration for the following representative compound of the present invention in the castor oil-induced diarrhea in the Rat test is: […]

Row | SMILES | ED50 [1] [mg/kg] | ED50 [2] [mg/kg]
1 | Cc1nnc(C(CC2CC3CCN2CC3)(c2ccccc2)c2ccccc2)o1.Cl (stereo not shown) [2-[2-(5-methyl-1,3,4-oxadiazol-2-yl)-2,2-diphenylethyl]-1-azabicyclo[2.2.2]octane hydrochloride] | 4.4 ± 1.3 | 
2 | Cl.c1ccc(C(CC2CC3CCN2CC3)(c2ccccc2)c2ccccn2)cc1 (stereo not shown) [2-[2,2-diphenyl-2-(2-pyridyl)ethyl]-1-azabicyclo[2.2.2]octane hydrochloride] | 18.1 ± 10.3 | 
3 | Cl.c1ccc(C(CC2CC3CCN2CC3)(c2ccccc2)c2ccccc2)cc1 (stereo not shown) [2-(2,2,2-triphenylethyl)-1-azabicyclo[2.2.2] octane hydrochloride] | 0.9 ± 0.2 | 0.2 ± 0.05
